Experimental data reported in US12403144B2, “HECT E3 ligase inhibitors and uses thereof” (IFOM FONDAZIONE ISTITUTO FIRC DI ONCOLOGIA MOLECOLARE, priority 2019, dated 2025).
Counter-ions that a name gives are not always drawn.

Assays:
[1] = biological target: T1, untagged HECT of ITCH (E3 ligase) (Homo sapiens, UniProt Q96J02); assay: In vitro ubiquitination assay TR-FRET based, ITCH; assay type: biochemical; details: read-out: percentage of inhibition (ITCH)
T1 construct: using untagged HECT of ITCH (E3 ligase) instead of untagged HECT of NEDD4 wild-type (WT) (E3 ligase); made in house
Procedure: To determine the selectivity of identified NEDD4 inhibitors, it was quantitatively measured the self-ubiquitination process of the E3 HECT ligase belonging to NEDD4 family such as NEDD4L, HECW2 and ITCH in presence or not of some compounds such as 5, 9, 12, 29, 42, 45, 56, 58, 61, 77, 78, 85 and 94 employing TR-FRET based assays.
The assay was performed as described above in the paragraph titled “In vitro ubiquitination assay TR-FRET based” under the heading “2.1. NEDD4 UBIQUITINATION ASSAYS” using untagged HECT of ITCH (E3 ligase) instead of untagged HECT of NEDD4 wild-type (WT) (E3 ligase). In this case, final E1, E2 and E3 concentrations in the assay buffer (Tris-HCl pH 7.6 25 mM, NaCl 100 mM, MgCl2 5 mM and Tween 0.01%) were 30, 350 and 60 nanomolars, respectively. Untagged HECT of ITCH (E3 ligase) enzyme was produced and purified as reported in E. Maspero et al. Methods Mol Biol. 1449:153-60 (2016) and in E. Maspero et al. EMBO Reports 12:342-349(2011).

DU145 cells = assay: CellTiter-Glo Luminescent Cell Viability Assay, DU145; assay type: cell-based; details: Homo sapiens, DU-145; 48 hours incubation; mean of at least two determinations; read-out: DU145 IC50 μM (antiproliferative activity)
Excerpt: (§1) CellTiter-Glo® Luminescent Cell Viability Assay (Promega, Catalog number: G7571) is a homogeneous method of determining the number of viable cells in culture based on quantitation of the present ATP, which indicates the presence of metabolically active cells. The homogeneous assay procedure involves addition of a single reagent (CellTiter-Glo® Reagent) directly to the cells, which leads to cell lysis and generation of a luminescent signal proportional to the amount of the ATP and the number of cells present in culture. The assay relies on the properties of a proprietary thermostable luciferase (Ultra-Glo® recombinant luciferase), which generates a luminescent signal.
(§2) DU145 cells (obtained from CLS Cell Lines Service GmbH item 300168) were grown in DMEM (Sigma Aldrich catalog number D6171-500 ml) supplemented with 10% Fetal Bovine Serum (Euroclone, catalog number. ECS0180L), 2 mM L-Glutamine (Euroclone catalog number LOBE17605F) and 100 U/ml penicillin-[…] streptomycin (EuroClone, ECB3001L). LNCaP cells (obtained from CLS Cell Lines Service GmbH item 300265) were grown in RPMI1640 (Lonza catalog number BE12-167F) supplemented with 10% Fetal Bovine Serum (Euroclone, catalog number. ECS0180L), 2 mM L-Glutamine (Euroclone catalog number LOBE17605F) and 100 U/ml penicillin-[…] streptomycin (EuroClone, ECB3001 L).
(§3) To determine the antiproliferative activity of the compounds, 3000 DU145 cells and 5000 LNCap cells were seeded in 96 multiwell plate (Sigma catalog number CLS9102) per well. 24 hours after seeding, the cells were incubated for 48 hours with different concentrations of the inhibitors (from 50 to 0 μM with a 3-fold dilution) dissolved in DMSO. After 48 hours, a volume of CellTiter-Glo® Reagent equal to the volume of cell culture medium was added. The content was mixed for 2 min to induce cell lysis. The luminescence was measured and recorded with Tecan Infinite 200 multimode plate reader after further 10 min at room temperature in order to obtain a stable luminescent signal.
(§4) The IC50 was calculated using GraphPad Software from the recorded luminescent signal.

LNCaP cells = assay: CellTiter-Glo Luminescent Cell Viability Assay, LNCaP; assay type: cell-based; details: Homo sapiens, 48 hours incubation, mean of at least two determinations, read-out: LNCaP IC50 μM (antiproliferative activity)
Excerpt: as §1, §2, §3, §4

T1 sequence (Q96J02 569-903 limits assumed): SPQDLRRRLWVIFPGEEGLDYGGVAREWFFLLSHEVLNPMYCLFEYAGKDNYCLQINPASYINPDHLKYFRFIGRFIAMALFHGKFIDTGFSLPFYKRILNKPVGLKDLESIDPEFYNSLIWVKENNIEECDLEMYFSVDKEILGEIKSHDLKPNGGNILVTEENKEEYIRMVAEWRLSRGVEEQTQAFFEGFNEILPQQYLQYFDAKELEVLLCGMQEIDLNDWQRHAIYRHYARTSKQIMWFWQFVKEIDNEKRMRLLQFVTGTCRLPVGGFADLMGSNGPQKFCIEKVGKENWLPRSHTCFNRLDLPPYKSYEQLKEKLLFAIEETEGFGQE

Compound | inhibition at 11 µM [1] [%] | IC50 (DU145 cells) [µM] | IC50 (LNCaP cells) [µM]
CCOC(=O)/C=C/CNCCCCN1c2cc(Cl)ccc2C(=O)N(C)c2ccccc21 [Compound 42, Ethyl (E)-4-{[4-(3-chloro-10-methyl-11-oxo-10,11-dihydro-5H-dibenzo[b,e][1,4]diazepin-5-yl)butyl]amino}but-2-enoate maleate] | < 15 | 9.18 | 6.49
CCOC(=O)/C=C/CNCCCCN1c2cc(Cl)ccc2C(=O)N(Cc2ccccc2)c2ccccc21 [Compound 56, Ethyl (E)-4-((4-(10-benzyl-3-chloro-11-oxo-10,11-dihydro-5H-dibenzo[b,e][1,4]diazepin-5-yl)butyl)amino)but-2-enoate maleate] | < 15 |  | 
CCOC(=O)/C=C/CNCCCCN1c2ccccc2C(=O)N(C)c2ccc(Cl)cc21 [Compound 29, Ethyl (E)-4-{[4-(7-chloro-10-methyl-11-oxo-10,11-dihydro-5H-dibenzo[b,e][1,4]diazepin-5-yl)butyl]amino}but-2-enoate maleate] | < 5 |  | 
CCOC(=O)/C=C/CNCCCCN1c2ccccc2C(=O)N(Cc2ccccc2)c2ccc(Cl)cc21 [Compound 45, Ethyl (E)-4-{[4-(10-benzyl-7-chloro-11-oxo-10,11-dihydro-5H-dibenzo[b,e][1,4]diazepin-5-yl)butyl]amino}but-2-enoate maleate] | < 5 | 4.97 | 5.69
CON(C)C(=O)/C=C/CN(C)CCCCN1c2ccccc2CCc2ccc(Cl)cc21 [Compound 9, (E)-4-[4-(3-Chloro-10,11-dihydro-5H-dibenzo[b,f]azepin-5-yl)butyl-methyl-amino]-N-methoxy-N-methyl-but-2-enamide] | < 20 |  | 
CCOC(=O)/C=C/CNCCCCN1c2ccccc2CCc2ccc(Cl)cc21.O=C(O)/C=C\C(=O)O [Compound 12, Ethyl (E)-4-[4-(3-chloro-10,11-dihydro-5H-dibenzo[b,f]azepin-5-yl)butylamino]but-2-enoate maleate] | < 5 | 6.81 | 6.67
CCOC(=O)/C=C/CCNCCCN1c2ccccc2CCc2ccc(Cl)cc21 [Compound 5, Ethyl (E)-5-[3-(3-chloro-10,11-dihydro-5H-dibenzo[b,f]azepin-5-yl)propylamino]pent-2-enoate maleate] | < 15 | 7.68 | 10.9
COC(=O)/C=C/CN(C)CCCCN1c2cc(Cl)ccc2C(=O)N(Cc2ccccc2)c2ccccc21 [Compound 58, Methyl (E)-4-{[4-(10-benzyl-3-chloro-11-oxo-10,11-dihydro-5H-dibenzo[b,e][1,4]diazepin-5-yl)butyl](methyl)amino}but-2-enoate maleate] | < 15 |  | 

Results, then the molecule that gave them:

inhibition at 11 µM [1] [%] | IC50 (DU145 cells) [µM] | IC50 (LNCaP cells) [µM] | Compound
< 5 |  |  | C#CCON(C)C(=O)/C=C/CN(C)CCCCN1c2ccccc2CCc2ccc(Cl)cc21 [Compound 77, (E)-4-[4-(3-Chloro-10,11-dihydro-5H-dibenzo[b,f]azepin-5-yl)butyl-methyl-amino]-N-methyl-N-prop-2-ynoxy-but-2-enamide maleate]
< 5 |  |  | CN(C/C=C/C#N)CCCCN1c2cc(Cl)ccc2C(=O)N(Cc2ccccc2)c2ccccc21 [Compound 61, (E)-4-{[4-(10-benzyl-3-chloro-11-oxo-10,11-dihydro-5H-dibenzo[b,e][1,4]diazepin-5-yl)butyl](methyl)amino}but-2-enenitrile maleate]
< 20 |  |  | CONC(=O)/C=C/CNCCCCN1c2ccccc2CCc2ccc(Cl)cc21 [Compound 78, (E)-4-[4-(3-Chloro-10,11-dihydro-5H-dibenzo[b,f]azepin-5-yl)butylamino]-N-methoxy-but-2-enamide maleate]
< 25 | 11.3 | 16.3 | CONC(=O)/C=C/CN(C)CCCCN1c2ccccc2CCc2ccc(Cl)cc21 [Compound 85, (E)-4-[4-(3-Chloro-10,11-dihydro-5H-dibenzo[b,f]azepin-5-yl)butyl-methyl-amino]-N-methoxy-but-2-enamide maleate]
< 15 |  |  | CN(C/C=C/C(=O)OCCOCCOCCOCCNC(=O)CCCC[C@@H]1SC[C@@H]2NC(=O)N[C@@H]21)CCCCN1c2ccccc2CCc2ccc(Cl)cc21 [Compound 94, 2-[2-(2-{2-[5-((3aS,4S,6aR)-2-Oxo-hexahydro-thieno[3,4-d]imidazol-4-yl)-pentanoylamino]-ethoxy}-ethoxy)-ethoxy]-ethyl (E)-4-{[4-(3-chloro-10,11-dihydro-dibenzo[b,f]azepin-5-yl)-butyl]-methyl-amino}but-2-enoate]
